Columns and labels:
VCaP cells = assay: Cell proliferation assay (CellTiter-Glo, 5-day exposure), VCaP; assay type: cell-based; conditions: 4000 cells/well, Th-227 labelled at 375 kBq/nmol, mean of 1 to 6 experiments
In short: (§1)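 Thorium-227-labelled PSMA small-molecule ligands were tested on prostate cancer lines seeded at 4000 cells/well (VCaP) or 1000 cells/well (22Rv1, C4-2, LNCaP) and incubated overnight at 37 °C, 5% CO2. Viability was read by CellTiter-Glo luminescence at treatment start (sister plates) and after 5-day compound exposure.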

C4-2 cells = assay: Cell proliferation assay (CellTiter-Glo, 5-day exposure), C4-2; assay type: cell-based; conditions: C4-2, 1000 cells/well, Th-227 labelled at 375 kBq/nmol, mean of 1 to 6 experiments
In short: as §1

22Rv1 cells = assay: Cell proliferation assay (CellTiter-Glo, 5-day exposure), 22Rv1; assay type: cell-based; conditions: 22Rv1, 1000 cells/well, Th-227 labelled at 375 kBq/nmol, mean of 1 to 6 experiments
In short: as §1

LNCaP cells = assay: Cell proliferation assay (CellTiter-Glo, 5-day exposure), LNCaP; assay type: cell-based, human; conditions: LNCaP, 1000 cells/well; Th-227 labelled at 375 kBq/nmol; 5-day exposure; mean of 1 to 6 experiments
In short: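 Cells were seeded at 4000/well (VCaP) or 1000/well (22Rv1, C4-2, LNCaP), incubated overnight at 37 °C, 5% CO2, then treated in triplicate with serial dilutions of Th-227-labeled PSMA ligands (375 kBq/nmol). Viability was read by CellTiter-Glo luminescence at day 0 and after 5 days.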

[1] = tested on: LNCaP human prostate cancer cells; assay: LNCaP xenograft efficacy study (T/C tumor area); assay type: in vivo, SCID mice
In short: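 SCID mice with testosterone pellet bearing s.c. flank LNCaP xenografts (5×10^6 cells in Matrigel) were treated i.v. with a defined radioactive dose once tumors reached 35-50 mm^2 (n=10/group). Tumor area (caliper, longest diameter × perpendicular) measured 2-3× weekly; T/C ratio calculated from tumor areas when vehicle group closed.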

[2] = molecular target: T1, PSMA-expressing LNCaP cells (Homo sapiens, UniProt Q04609); assay: Internalization assay (membrane bound and internalized Th-227); assay type: cell-based; conditions: 10 nM radiolabeled compound, Th-227 at 375 kBq/nmol, triplicates; for Internalized in LNCaP fmol/10^6 cells 30 min / Membrane bound in LNCaP fmol/10^6 cells 30 min: 30 min incubation; for Internalized in LNCaP fmol/10^6 cells 2 h / Membrane bound in LNCaP fmol/10^6 cells 2 h: 2 h incubation
T1 construct: PSMA-expressing LNCaP cells; endogenous in cells; host or cells: LNCaP
Description: For internalization assays 24 well plates (#3526, Corning) were coated with 200 μl Poly-L-Lysine (0.1 mg/ml, #3438-100-01, Fa. Cultrex) per well for 2 h at 37° C. […] Cells were incubated at 37° C. and 5% CO2 over night. On the following day 400 μl of the media were removed and a total of 200 μl growth medium added supplemented with PSMA-SMOLs labeled with Th-227 at 375 kBq/nmol in triplicates. Radiochemical purity of the labeling was analyzed by instant thin layer chromatography and found to be above 70% for all compounds used. The final concentration of radiolabeled SMOLs was in the test wells was 10 nM. Cells were incubated for 30 min or 2 h. After the incubation time supernatants were taken off and cells washed with PBS. Thereafter cells were washed twice with 0.2 ml 50 mM Glycine-HCl buffer (#55097, Sigma Aldrich) and once with PBS and the washing solutions combined in counting vials (#TK75-018, Fa. Corning) and subjected to gamma counting (1470 Wizard automatic gamma counter, Wallac). The resulting counts were attributed to membrane bound radioactivity. Cells were then lysed with 500 μl 0.3N NaOH (#181691.1211, Fa. PanReac AppliChem ITW Reagents) followed by another wash with 500 μl PBS. The NaOH lysate as well as the final wash were combined in vials and subjected to gamma counting as described above. Measured radioactivity was attributed to internalized fraction. Results were calculated as fmol of Th-227 per/10^cells in the membrane bound and internalized fractions from triplicate values.

[3] = Example V, day 27 after start of therapy, once 750 kBq/kg
[4] = Example IV, day 36 after start of therapy, once 1 MBq/kg

T1 sequence (Q04609 whole entry): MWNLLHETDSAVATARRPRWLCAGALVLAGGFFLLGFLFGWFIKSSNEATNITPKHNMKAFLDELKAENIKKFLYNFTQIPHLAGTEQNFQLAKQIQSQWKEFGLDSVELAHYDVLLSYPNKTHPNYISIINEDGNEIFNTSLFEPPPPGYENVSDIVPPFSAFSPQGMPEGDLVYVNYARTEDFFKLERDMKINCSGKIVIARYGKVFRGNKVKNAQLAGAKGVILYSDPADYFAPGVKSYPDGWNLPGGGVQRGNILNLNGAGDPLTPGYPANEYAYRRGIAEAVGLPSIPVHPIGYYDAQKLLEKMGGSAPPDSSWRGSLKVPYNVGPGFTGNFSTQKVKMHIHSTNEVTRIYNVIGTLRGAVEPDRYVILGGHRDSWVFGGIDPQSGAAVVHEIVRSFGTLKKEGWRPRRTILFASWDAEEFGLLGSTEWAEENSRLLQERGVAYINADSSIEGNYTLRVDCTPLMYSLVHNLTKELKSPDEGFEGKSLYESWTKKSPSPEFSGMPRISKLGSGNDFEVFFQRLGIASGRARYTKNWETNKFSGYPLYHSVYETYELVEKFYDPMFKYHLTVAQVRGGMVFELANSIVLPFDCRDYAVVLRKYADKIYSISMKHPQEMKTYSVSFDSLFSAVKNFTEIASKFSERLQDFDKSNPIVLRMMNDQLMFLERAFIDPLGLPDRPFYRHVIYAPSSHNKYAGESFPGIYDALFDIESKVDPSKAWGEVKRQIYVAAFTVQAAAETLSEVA

Compound | Proliferation assay on cancer cell lines by TTCs Default Pivot #3 IC50 [kBq/mL] VCap 4000cells 375kBq/nmol (mean) (VCaP cells) [kBq/mL] | Proliferation assay on cancer cell lines by TTCs Default Pivot #3 IC50 [kBq/mL] C4-2 1000cells 375kBq/nmol (mean) (C4-2 cells) [kBq/mL] | Proliferation assay on cancer cell lines by TTCs Default Pivot #3 IC50 [kBq/mL] 22Rv1 1000cells 375kBq/nmol (mean) (22Rv1 cells) [kBq/mL] | Proliferation assay on cancer cell lines by TTCs Default Pivot #3 IC50 [kBq/mL] LnCap 1000cells 375kBq/nmol (mean) (LNCaP cells) [kBq/mL] | T/Carea [1, 3] | Internalized in LNCaP fmol/10^6 cells 30 min [2] [fmol/10^6 cells] | Membrane bound in LNCaP fmol/10^6 cells 30 min [2] [fmol/10^6 cells] | Internalized in LNCaP fmol/10^6 cells 2 h [2] [fmol/10^6 cells] | Membrane bound in LNCaP fmol/10^6 cells 2 h [2] [fmol/10^6 cells] | T/Carea ([1]; Example I, day 27, 1 x 750 kBq/kg) | T/Carea [1, 4]
CC1=CC2=C3[O][227Th-4]45678([O]C9=C(C=C(C)N(CC(=O)O)C9=[O+]4)C(=O)NCCN(CCCN(CCNC(=O)C4=C([O]5)C(=[O+]6)N(CC(=O)O)C(C)=C4)CCNC(=O)C4=C([O]7)C(=[O+]8)N(CC(=O)NC[C@H]5CC[C@H](C(=O)N[C@@H](Cc6ccc7ccccc7n6)C(=O)NCCCC[C@H](NC(=O)N[C@@H](CCC(=O)O)C(=O)O)C(=O)O)CC5)C(C)=C4)CCNC2=O)[O+]=C3N1CC(=O)O [Example 17-C monomer-227Th] | 1.48 | 0.5 | 0.86 | 0.04 | 0.36 |  |  |  |  |  | 
Cc1cc2c(c(=O)n1CC(=O)O)[O][227Th]13[O]c4c(cc(C)n(CC(=O)O)c4=O)C(=O)NCCN(CCCN(CCNC(=O)c4cc(C)n(CC(=O)O)c(=O)c4[O]1)CCNC(=O)c1cc(C)n(CC(=O)NCc4ccc(C(=O)N[C@@H](Cc5ccc6ccccc6n5)C(=O)NCCCC[C@H](NC(=O)N[C@@H](CCC(=O)O)C(=O)O)C(=O)O)nc4)c(=O)c1[O]3)CCNC2=O [34-C monomer-227Th] | 0.99 | 0.15 | 1.28 | 0.02 | 0.37 | 75 | 147 | 325 | 359 | 0.37 | 0.51
Cc1cc(C(=O)NCCN(CCCN(CCNC(=O)c2cc(C)n(CC(=O)NCc3ccc(C(=O)N[C@@H](Cc4ccc5ccccc5n4)C(=O)NCCCC[C@H](NC(=O)N[C@@H](CCC(=O)O)C(=O)O)C(=O)O)nc3)c(=O)c2[O-])CCNC(=O)c2cc(C)n(CC(=O)NCc3ccc(C(=O)N[C@@H](Cc4ccc5ccccc5n4)C(=O)NCCCC[C@H](NC(=O)N[C@@H](CCC(=O)O)C(=O)O)C(=O)O)nc3)c(=O)c2[O-])CCNC(=O)c2cc(C)n(CC(=O)NCc3ccc(C(=O)N[C@@H](Cc4ccc5ccccc5n4)C(=O)NCCCC[C@H](NC(=O)N[C@@H](CCC(=O)O)C(=O)O)C(=O)O)nc3)c(=O)c2[O-])c([O-])c(=O)n1CC(=O)O.[227Th+4] [34-C trimer 227Th] | 1.1 | 0.28 | 1.25 | 0.03 | 0.56 | 68 | 49 | 162 | 93 |  | 0.41
Cc1cc(C(=O)NCCN(CCCN(CCNC(=O)c2cc(C)n(CC(=O)NCc3ccc(C(=O)N[C@@H](Cc4ccc5ccccc5n4)C(=O)NCCCC[C@H](NC(=O)N[C@@H](CCC(=O)O)C(=O)O)C(=O)O)nc3)c(=O)c2[O-])CCNC(=O)c2cc(C)n(CC(=O)NCc3ccc(C(=O)N[C@@H](Cc4ccc5ccccc5n4)C(=O)NCCCC[C@H](NC(=O)N[C@@H](CCC(=O)O)C(=O)O)C(=O)O)nc3)c(=O)c2[O-])CCNC(=O)c2cc(C)n(CC(=O)NCc3ccc(C(=O)N[C@@H](Cc4ccc5ccccc5n4)C(=O)NCCCC[C@H](NC(=O)N[C@@H](CCC(=O)O)C(=O)O)C(=O)O)nc3)c(=O)c2[O-])c([O-])c(=O)n1CC(=O)NCc1ccc(C(=O)N[C@@H](Cc2ccc3ccccc3n2)C(=O)NCCCC[C@H](NC(=O)N[C@@H](CCC(=O)O)C(=O)O)C(=O)O)nc1.[227Th+4] [34-C tetramer-227Th] | 1.96 | 1.55 | 1.34 | 0.03 |  | 117 | 82 | 315 | 183 |  | 
Cn1ccc2c(c1=O)[O][Th]13[O]c4c(ccn(C)c4=O)C(=O)NCCN(CCNC2=O)CC(Cc2ccc(NC(=O)CCC(=O)N[C@H](CCCNC(=N)N)C(=O)N[C@H](CCCNC(=N)N)C(=O)NC[C@H]4CC[C@H](C(=O)N[C@@H](Cc5ccc6ccccc6c5)C(=O)NCCCC[C@H](NC(=O)N[C@@H](CCC(=O)O)C(=O)O)C(=O)O)CC4)cc2)CN(CCNC(=O)c2ccn(C)c(=O)c2[O]1)CCNC(=O)c1ccn(C)c(=O)c1[O]3 (stereo partly shown) [Example 46-E-227Th] | 1.37 | 0.95 | 0.68 | 0.18 |  | 34 | 63 | 104 | 234 |  | 
Cc1cc2c(c(=O)n1CC(=O)O)[O][227Th]13[O]c4c(cc(C)n(CC(=O)O)c4=O)C(=O)NCCN(CCCN(CCNC2=O)CCNC(=O)c2cc(C)n(CC(=O)NCc4ccc(C(=O)N[C@@H](Cc5ccc6ccccc6n5)C(=O)NCCCC[C@H](NC(=O)N[C@@H](CCC(=O)O)C(=O)O)C(=O)O)nc4)c(=O)c2[O]1)CCNC(=O)c1cc(C)n(CC(=O)NCc2ccc(C(=O)N[C@@H](Cc4ccc5ccccc5n4)C(=O)NCCCC[C@H](NC(=O)N[C@@H](CCC(=O)O)C(=O)O)C(=O)O)nc2)c(=O)c1[O]3 [34-C dimer-227Th] | 1.25 | 0.46 | 1.36 | 0.02 | 0.38 | 100 | 79 | 299 | 185 |  | 0.46
